According to patent publication US4301313A, “Halogenated ethynyl biphenyls” (Eli-Lilly and Company, priority 1974, dated 1981):
Where “and” joins values, the source holds several entries; their conditions need not be identical. Equal entries are not always repeated.

What was measured:
[1] = ultraviolet-induced erythema test, topical application in alcohol solution; assay type: in vivo, guinea pig; details: for Erythemic score, 1 Hr. after U.V. exposure / Erythemic score, 1.5 Hr. after U.V. exposure / Erythemic score, 2 Hr. after U.V. exposure / Erythemic score, 2.5 Hr. after U.V. exposure: unweighted; for Total erythemic score: control 78
Procedure: The compounds of the present invention were evaluated for anti-inflammatoryactivity by the ultraviolet-induced erythema blocking test. The test procedures were a modification of the Winder method (Winder, C. V.; Wax, J.; Burr, V.; Been, M.; and Posiere, C. E.: A Study of Pharmacological Influences on Ultraviolet Erythema in Guinea Pigs. Arch. Int. Pharmacodyn. 116: 261, 1958). Male albino guinea pigs weighing 240-300 gm. were used. The hair on the back was clipped and chemically depilated 15-18 hours before each experiment. The animals were fasted overnight, and on the day of the experiment, were randomized and placed in clear plastic partitioned holders 10×20 cm. wide and 15 cm. high.
The source of ultraviolet light was a Hanovia lamp (Kromayer-Model 10). A notebook reinforcement ring was placed upon the lens of the lamp to provide an area of contrast for grading purposes. The lens was then placed in contact with the skin of the guinea pig's back. Exposure time to UV was for a period of 4 seconds. Beginning one hour after exposure and thereafter at half-hour intervals for another 11/2 hours, the degree of resulting erythema was graded by an arbitrary scoring system based upon the degree of contrast and redness formed. Anti-inflammatory agents delay the development of the erythema and have their greatest effect at the initial grading periods. The scores were, therefore, weighted by factors of 4, 3, 2, and 1 at the 1.0, 1.5, 2.0, and 2.5 hour scoring times, respectively. The erythema was graded as follows:
Total scores from each treatment group of four guinea pigs were compared to the scores of the control group. The percent inhibition was calculated as follows: [formula] In the case of compounds showing inhibition, retesting was carried out at a plurality of doses to enable calculation of an ED50 for each such compound. "ED50 " designates that dose which provides 50% inhibition. Calculation of the ED50 was either by a standard linear regression method or by estimation from a dose-response curve of three or more points. The compounds so tested and their ED50 s were as follows:
(4-(2-Fluorophenyl)phenyl)acetylene was also evaluated for anti-inflammatory effect when applied topically. The test procedures were the same as those reported in Examples 29-52 except for three differences: the compound was applied topically in an alcohol solution immediately after exposure to the ultraviolet; scores were not weighted; and results were recorded only as percent inhibition.

[2] = control of inflammation in dogs (ultraviolet-induced erythema, abdominal skin); assay type: in vivo, dog
Procedure: (4-(2-Fluorophenyl)phenyl)acetylene was also evaluated for the control of inflammation in dogs. The testing procedures were the same as reported in the preceding examples except for these differences: a 10-second exposure time was used; non-pigmented abdominal skin was used; and the observed erythema was graded every half hour over a three-hour period with no weighting of scores. A placebo control was run with the same test dogs on the day prior to treatment.

[3] = carrageenin induced test, compound administered about 20 hours prior; assay type: in vivo; details: rat, dose 10 (unit not given), about 20 hours prior to test
Procedure: Representative compounds were also evaluated for anti-inflammatory activity in the test method described by C. A. Winter at 111 Proc. Soc. Exp. Biol. Med., 544 (1962). In this method, inflammation is created by injecting carrageenin into the hind paw of rats. Test compounds are administered prior to injection to determine percent inhibition of the subsequent inflammation, in comparison with control animals.
Each of 4-biphenylylacetylene and (4-(2-fluorophenyl)phenyl)acetylene was evaluated again in the carrageenin induced test method reported in Examples 60-80. However, in these tests, the compound was administered about 20 hours prior to the test procedures.

[4] = antipyretic effect in yeast-induced fever; assay type: in vivo, rat
Procedure: (4-(2-Fluorophenyl)phenyl)acetylene was evaluated for antipyretic effect in rats. Fever was induced by subcutaneous injection of yeast, a technique reported at 54 J. Pharm. Exp. Ther. 346 (1935). A total of 24 rats was employed, divided into 6 treatment groups. One group was a normal control, without even the yeast injection. A second group served as a yeast control, receiving yeast injection but none of the test compound. All of the remaining groups received the test compound, in the following pattern: no yeast+100 mg./kg. of compound yeast+100 mg./kg. of compound yeast+50 mg./kg. of compound yeast+10 mg./kg. of compound The procedure was that yeast was administered to all rats at the same time, and temperatures were ascertained two hours later, at which time the test compound was administered to those groups assigned to receive it. Temperatures of all animals were also recorded thereafter at 1.0, 1.5, 2.0, 2.5, and 3.0 hours following administration of the test compound.

What does the source list for `C#Cc1ccc(-c2ccccc2F)cc1` [(4-(2-fluorophenyl)phenyl)acetylene]?
% Inhibition ([1]; 1 μg applied): 28%; Erythemic score, 1 Hr. after U.V. exposure ([1]; 1 μg applied): 6; Erythemic score, 1.5 Hr. after U.V. exposure ([1]; 1 μg applied): 13; Erythemic score, 2 Hr. after U.V. exposure ([1]; 1 μg applied): 18; Erythemic score, 2.5 Hr. after U.V. exposure ([1]; 1 μg applied): 19; Total erythemic score ([1]; 1 μg applied): 56; % Inhibition ([1]; 10 μg applied): 41%; Erythemic score, 1 Hr. after U.V. exposure ([1]; 10 μg applied): 5; Erythemic score, 1.5 Hr. after U.V. exposure ([1]; 10 μg applied): 10; Erythemic score, 2 Hr. after U.V. exposure ([1]; 10 μg applied): 14; Erythemic score, 2.5 Hr. after U.V. exposure ([1]; 10 μg applied): 17; Total erythemic score ([1]; 10 μg applied): 46; % Inhibition ([1]; 100 μg applied): 83%; Erythemic score, 1 Hr. after U.V. exposure ([1]; 100 μg applied): 0; Erythemic score, 1.5 Hr. after U.V. exposure ([1]; 100 μg applied): 1; Erythemic score, 2 Hr. after U.V. exposure ([1]; 100 μg applied): 4; Erythemic score, 2.5 Hr. after U.V. exposure ([1]; 100 μg applied): 8; Total erythemic score ([1]; 100 μg applied): 13; % Erythema Inhibition ([2]; dog No. 04, 5 mg/kg): 100%; Total erythemic score ([2]; dog No. 04, 5 mg/kg, control 15): 0; % Erythema Inhibition ([2]; dog No. 05, 1 mg/kg): 71%; Total erythemic score ([2]; dog No. 05, 1 mg/kg, control 14): 4; % Erythema Inhibition ([2]; dog No. 05, 10 mg/kg): 100%; Total erythemic score ([2]; dog No. 05, 10 mg/kg, control 14): 0; % Inhibition [3]: 42% and 60%; Temperatures of rats receiving both yeast and test compound ([4]; 10, 50 and 100 mg./kg., all reading times): uniformly lower; Temperature change in rats receiving no yeast injection ([4]; no yeast, 100 mg./kg.): some lowering of temperature occurred; Statistical significance of temperature change in rats receiving no yeast ([4]; no yeast, 100 mg./kg., versus normal control and yeast control groups): not statistically significant; Antipyretic action ([4]; rats, yeast fever, conclusion): exhibited antipyretic action; Statistical significance of temperature differences, 1.5 hour reading ([4]; yeast rats, 50 mg./kg. and 100 mg./kg., 1.5 hour): not statistically significant; Statistical significance of temperature differences, 1.0 hour reading ([4]; yeast rats, all dose levels, 1.0 hour): not statistically significant; Statistical significance of temperature differences, all other doses ([4]; yeast rats, all other doses/readings): statistically significant
